# Patent publication US11925629B2, “Heterocyclic inhibitors of ERK1 and ERK2 and their use in the treatment of cancer” (Asana Biosciences, LLC, priority 2015, dated 2024)
# Key:
# Type in all cases: cell-based, human
# [1] = tested on: HT-29 (colorectal carcinoma, B-RafV600E) cells; test: Cell proliferation (Alamar Blue) assay, HT-29; conditions: Homo sapiens, HT-29, HT29 cells
# Procedure, shortened: (§1)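 Cells seeded at 5000/well and allowed 16-24 h at 37° C./5% CO2, then exposed to 3-fold serial dilutions (typically 0.0005 to 10 uM) for 72 h. Viability read by Alamar Blue (1×, 1-3 h) fluorescence at 540/590 nm; IC50 from variable-slope sigmoidal fit.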
# [2] = tested on: HCT116 (colorectal carcinoma, K Ras G13D) cells; test: Cell proliferation (Alamar Blue) assay, HCT116; conditions: Homo sapiens, HCT-116, HCT116 cells
# Procedure, shortened: as §1
# [3] = tested on: phosphorylation of RSK1(S380) (the downstream target of ERK1/2); test: Phospho-RSK1(S380) ELISA assay in HT-29 cells; conditions: Homo sapiens, HT-29, HT29 cells, phospho-RSK1(S380); read-out: Mechanistic Cell Assay RSK1 Phos HT29 IC50
# Procedure, shortened: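 IC50 values derive from a variable-slope sigmoidal fit of sandwich-ELISA signal (450 nm) for RSK1 Ser380 phosphorylation. The cells were B-RafV600E HT-29 colorectal line, exposed to serially diluted compound for 2 h after overnight seeding, then lysed at 4° C.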
Structure (SMILES),IC50 [1],IC50 [2],IC50 [3]
"Cc1cnc(NC2CC2)nc1-n1ccc(C(=O)NC(CO)c2cccc(Cl)c2)c1 (stereo not drawn) [Example 115, N-(1-(3-chloro-phenyl)-2-hydroxy-ethyl)-1-(2-(cyclopropyl-amino)-5-methyl-pyrimidin-4-yl)-1H-pyrrole-3-carboxamide]",> 2.5 µM,> 2.5 µM,0.25 to 0.5 µM
"O=C(N[C@H](CO)c1cccc(Cl)c1)c1cn(-c2ccnc(NC3CC3)c2)cn1 [Example 116, (S)-N-(1-(3-chlorophenyl)-2-hydroxy-ethyl)-1-(2-(cyclopropyl-amino)pyridin-4-yl)-1H-imidazole-4-carboxamide]",> 2.5 µM,> 2.5 µM,0.5 to 2.5 µM
"Cc1cnc(NC(C)c2ccccc2)nc1-n1ccc(C(=O)NC(CO)c2ccccc2)c1 (stereo not drawn) [Example 117, N-(2-hydroxy-1-phenyl-ethyl)-1-(5-methyl-2-((1-phenylethyl)amino)pyrimidin-4-yl)-1H-pyrrole-3-carboxamide]",> 2.5 µM,> 2.5 µM,0.5 to 2.5 µM
"Cc1cnc(Nc2ccc(F)cc2)nc1-n1cnc(C(=O)NC(CO)c2ccccc2)c1 (stereo not drawn) [Example 118, 1-(2-((4-fluoro-phenyl)amino)-5-methyl-pyrimidin-4-yl)-N-(2-hydroxy-1-phenylethyl)-1H-imidazole-4-carboxamide]",0.1 to 0.25 µM,0.5 to 2.5 µM,0.25 to 0.5 µM
"COc1cc(Nc2ncc(C)c(-n3ccc(C(=O)NC(CO)c4ccccc4)c3)n2)cc(OC)c1OC (stereo not drawn) [Example 121, N-(2-hydroxy-1-phenylethyl)-1-(5-methyl-2-((3,4,5-trimethoxy-phenyl)amino)pyrimidin-4-yl)-1H-pyrrole-3-carboxamide]",0.25 to 0.5 µM,0.25 to 0.5 µM,0.25 to 0.5 µM
"Cc1cnc(NC2CCOC2)nc1-n1ccc(C(=O)NC(CO)c2cccc(Cl)c2)c1 (stereo not drawn) [Example 123, N-(1-(3-chlorophenyl)-2-hydroxy-ethyl)-1-(5-methyl-2-((tetrahydro-furan-3-yl)amino)pyrimidin-4-yl)-1H-pyrrole-3-carboxamide]",0.25 to 0.5 µM,0.5 to 2.5 µM,0.1 to 0.25 µM
"O=C(NC(CO)c1cccc(Cl)c1)c1ccn(-c2cc(Nc3ccccc3)ncc2Cl)c1 (stereo not drawn) [Example 124, 1-(5-chloro-2-(phenyl-amino)pyridin-4-yl)-N-(1-(3-chlorophenyl)-2-hydroxy-ethyl)-1H-pyrrole-3-carboxamide]",0.5 to 2.5 µM,> 2.5 µM,0.5 to 2.5 µM
"Cc1cnc(Nc2ccc(F)cc2)nc1-n1ccc(C(=O)N[C@H](CO)c2ccc(F)c(Cl)c2)c1 [Example 125, (S)-N-(1-(3-chloro-4-fluorophenyl)-2-hydroxy-ethyl)-1-(2-((4-fluoro-phenyl)-amino)-5-methyl-pyrimidin-4-yl)-1H-pyrrole-3-carboxamide]",0.25 to 0.5 µM,0.25 to 0.5 µM,0.1 to 0.25 µM
"COc1cc(Nc2ncc(C)c(-n3ccc(C(=O)N[C@H](CO)c4ccc(F)c(Cl)c4)c3)n2)cc(OC)c1OC [Example 126, (S)-N-(1-(3-chloro-4-fluorophenyl)-2-hydroxy-ethyl)-1-(5-methyl-2-((3,4,5-trimethoxy-phenyl)amino)pyrimidin-4-yl)-1H-pyrrole-3-carboxamide]",0.1 to 0.25 µM,≤ 0.1 µM,0.1 to 0.25 µM
"CCC(COC)Nc1ncc(C)c(-n2ccc(C(=O)NC(CO)c3cccc(Cl)c3)c2)n1 (stereo not drawn) [Example 127, N-(1-(3-chloro-phenyl)-2-hydroxy-ethyl)-1-(2-((1-methoxy-butan-2-yl)amino)-5-methyl-pyrimidin-4-yl)-1H-pyrrole-3-carboxamide]",> 2.5 µM,> 2.5 µM,0.5 to 2.5 µM
"Cc1cnc(NC2CCOC2)nc1-n1ccc(C(=O)NC(CO)c2ccccc2)c1 (stereo not drawn) [Example 128, N-(2-hydroxy-1-phenylethyl)-1-(5-methyl-2-((tetrahydro-furan-3-yl)amino)pyrimidin-4-yl)-1H-pyrrole-3-carboxamide]",0.5 to 2.5 µM,> 2.5 µM,0.5 to 2.5 µM
"COc1cnc(Nc2ccc(F)cc2Cl)nc1-n1ccc(C(=O)NC(CO)c2ccccc2)c1 (stereo not drawn) [Example 129, 1-(2-((2-chloro-4-fluorophenyl)amino)-5-methoxy-pyrimidin-4-yl)-N-(2-hydroxy-1-phenylethyl)-1H-pyrrole-3-carboxamide]",> 2.5 µM,> 2.5 µM,0.5 to 2.5 µM
"CCNc1ncc(C)c(-n2ccc(C(=O)NC(CO)c3ccccc3)c2)n1 (stereo not drawn) [Example 130, 1-(2-(ethyl-amino)-5-methyl-pyrimidin-4-yl)-N-(2-hydroxy-1-phenylethyl)-1H-pyrrole-3-carboxamide]",> 2.5 µM,> 2.5 µM,0.5 to 2.5 µM
"Cc1cnc(Nc2ccc3c(c2)OCCO3)nc1-n1ccc(C(=O)NC(CO)c2ccccc2)c1 (stereo not drawn) [Example 131, 1-(2-((2,3-dihydro-benzo[b][1,4]dioxin-6-yl)-amino)-5-methyl-pyrimidin-4-yl)-N-(2-hydroxy-1-phenylethyl)-1H-pyrrole-3-carboxamide]",0.25 to 0.5 µM,0.25 to 0.5 µM,0.25 to 0.5 µM
"Cc1cnc(Nc2ccc3occc3c2)nc1-n1cnc(C(=O)NC(CO)c2cccc(Cl)c2)c1 (stereo not drawn) [Example 132, 1-(2-(benzo-furan-5-ylamino)-5-methyl-pyrimidin-4-yl)-N-(1-(3-chlorophenyl)-2-hydroxy-ethyl)-1H-imidazole-4-carboxamide]",0.5 to 2.5 µM,0.5 to 2.5 µM,0.5 to 2.5 µM
"CC[C@@H](CO)Nc1ncc(C)c(-n2ccc(C(=O)N[C@H](CO)c3ccc(F)c(Cl)c3)c2)n1 [Example 133, N-((S)-1-(3-chloro-4-fluorophenyl)-2-hydroxy-ethyl)-1-(2-(((S)-1-hydroxy-butan-2-yl)amino)-5-methyl-pyrimidin-4-yl)-1H-pyrrole-3-carboxamide]",0.25 to 0.5 µM,0.5 to 2.5 µM,0.25 to 0.5 µM
"Cc1cnc(Nc2ccc3c(c2)CCO3)nc1-n1ccc(C(=O)NC(CO)c2cccc(Cl)c2)c1 (stereo not drawn) [Example 137, N-(1-(3-chloro-phenyl)-2-hydroxy-ethyl)-1-(2-((2,3-dihydro-benzofuran-5-yl)-mino)-5-methyl-pyrimidin-4-yl)-1H-pyrrole-3-carboxamide]",0.25 to 0.5 µM,0.1 to 0.25 µM,0.1 to 0.25 µM
"Cc1cnc(Nc2ccc3c(c2)CCO3)nc1-n1ccc(C(=O)NC(CO)c2ccccc2)c1 (stereo not drawn) [Example 138, 1-(2-((2,3-dihydro-benzofuran-5-yl)amino)-5-methyl-pyrimidin-4-yl)-N-(2-hydroxy-1-phenylethyl)-1H-pyrrole-3-carboxamide]",0.1 to 0.25 µM,0.1 to 0.25 µM,0.1 to 0.25 µM
"Cc1cnc(Nc2ccc3c(c2)OCCO3)nc1-n1ccc(C(=O)NC(CO)c2cccc(Cl)c2)c1 (stereo not drawn) [Example 139, N-(1-(3-chloro-phenyl)-2-hydroxy-ethyl)-1-(2-((2,3-dihydro-benzo[b][1,4]dioxin-6-yl)amino)-5-methyl-pyrimidin-4-yl)-1H-pyrrole-3-carboxamide]",0.25 to 0.5 µM,0.1 to 0.25 µM,≤ 0.1 µM
"Cc1cnc(Nc2ccc3[nH]ncc3c2)nc1-n1ccc(C(=O)NC(CO)c2ccccc2)c1 (stereo not drawn) [Example 140, 1-(2-((1H-indazol-5-yl)amino)-5-methyl-pyrimidin-4-yl)-N-(2-hydroxy-1-phenylethyl)-1H-pyrrole-3-carboxamide]",0.5 to 2.5 µM,0.5 to 2.5 µM,> 2.5 µM
"Cc1cnc(NC2CCCOC2)nc1-n1ccc(C(=O)NC(CO)c2ccccc2)c1 (stereo not drawn) [Example 141, N-(2-hydroxy-1-phenylethyl)-1-(5-methyl-2-((tetrahydro-2H-pyran-3-yl)amino)-pyrimidin-4-yl)-1H-pyrrole-3-carboxamide]",> 2.5 µM,> 2.5 µM,> 2.5 µM
"COc1cc(F)ccc1Nc1ncc(C)c(-n2ccc(C(=O)NC(CO)c3cccc(Cl)c3)c2)n1 (stereo not drawn) [Example 142, N-(1-(3-chloro-phenyl)-2-hydroxy-ethyl)-1-(2-((4-fluoro-2-methoxy-phenyl)amino)-5-methyl-pyrimidin-4-yl)-1H-pyrrole-3-carboxamide]",0.5 to 2.5 µM,0.5 to 2.5 µM,0.25 to 0.5 µM
"COc1c(F)cccc1Nc1ncc(C)c(-n2ccc(C(=O)NC(CO)c3cccc(Cl)c3)c2)n1 (stereo not drawn) [Example 143, N-(1-(3-chloro-phenyl)-2-hydroxy-ethyl)-1-(2-((3-fluoro-2-methoxy-phenyl)amino)-5-methyl-pyrimidin-4-yl)-1H-pyrrole-3-carboxamide]",0.5 to 2.5 µM,0.25 to 0.5 µM,0.25 to 0.5 µM
"CC[C@@H](CO)Nc1ncc(C)c(-n2ccc(C(=O)NC(CO)c3cccc(Cl)c3)c2)n1 (stereo partly drawn) [Example 146, N-(1-(3-chloro-phenyl)-2-hydroxy-ethyl)-1-(2-(((S)-1-hydroxy-butan-2-yl)amino)-5-methyl-pyrimidin-4-yl)-1H-pyrrole-3-carboxamide]",0.5 to 2.5 µM,0.5 to 2.5 µM,0.1 to 0.25 µM
"Cc1cnc(NC(CO)CO)nc1-n1ccc(C(=O)NC(CO)c2ccccc2)c1 (stereo not drawn) [Example 147, 1-(2-((1,3-dihydroxy-propan-2-yl)amino)-5-methyl-pyrimidin-4-yl)-N-(2-hydroxy-1-phenylethyl)-1H-pyrrole-3-carboxamide]",> 2.5 µM,> 2.5 µM,> 2.5 µM
"COc1ccc(Nc2ncc(C)c(-n3ccc(C(=O)NC(CO)c4ccccc4)c3)n2)cc1OCCN1CCN(C)CC1 (stereo not drawn) [Example 148, N-(2-hydroxy-1-phenylethyl)-1-(2-((4-methoxy-3-(2-(4-methyl-piperazin-1-yl)ethoxy)-phenyl)amino)-5-methyl-pyrimidin-4-yl)-1H-pyrrole-3-carboxamide]",0.5 to 2.5 µM,0.5 to 2.5 µM,0.5 to 2.5 µM
